Test results published in patent US9963462B2 (priority 2015, dated 2018).

What was measured:
[1] = test system: BH4 levels in SK-N-BE (2) cells; assay: SKN-N-BE (2) cellular assay, BH4 levels by LC-MS; type: cell-based; settings: Homo sapiens, SKNBE2, read-out: SK-N-BE(2) IC50, SK-N-BE (2) cells, BH4 levels by LC-MS
Experimental: SKN-N-BE(2) Cellular Assay: SK-N-BE (2) cells were seeded in sterile, 96-well plates and incubated for 12-24 hours at 37° C. with 5% CO2 supply. Media was removed and fresh DMEM/F-12 media (containing Glutamine & Pen/Strep but no FBS) was added. Compounds (at different concentrations) were added to different wells. The plates were then incubated for 6-48 hours at 37° C. with 5% CO2 supply. Plates were then centrifuged and the supernatant was removed. The plates were then optionally washed once with PBS. They were then sealed and stored at −80° C. or immediately used. The cells were lysed and the level of BH4 was assessed by LC-MS.
Compounds were assayed for SPR inhibitory activity using a SKN-N-BE (2) cellular assay according to the following procedure. SK-N-BE (2) cells were seeded in sterile, 96-well plates and incubated for 12-24 hours at 37° C. with 5% CO2 supply. Media was removed and fresh DMEM/F-12 media (containing Glutamine & Pen/Strep but no FBS) was added. Compounds (at different concentrations) were added to different wells. The plates were then incubated for 6-48 hours at 37° C. with 5% CO2 supply. Plates were then centrifuged and the supernatant was removed. The plates were then optionally washed once with PBS. They were then sealed and stored at −80° C. or immediately used in the next step. The cells were lysed and the levels of BH4 were assessed by LC-MS.

[2] = molecular target: SNAP-hSPR (sepiapterin reductase, SPR) (Homo sapiens, UniProt P35270); assay: biochemical; type: binding; settings: terbium labelled SNAP-hSPR / SSZ labelled SNAP-EGFP; read-out: hTR-FRET IC50
Sequence of SNAP-hSPR (sepiapterin reductase, SPR) (P35270 whole entry): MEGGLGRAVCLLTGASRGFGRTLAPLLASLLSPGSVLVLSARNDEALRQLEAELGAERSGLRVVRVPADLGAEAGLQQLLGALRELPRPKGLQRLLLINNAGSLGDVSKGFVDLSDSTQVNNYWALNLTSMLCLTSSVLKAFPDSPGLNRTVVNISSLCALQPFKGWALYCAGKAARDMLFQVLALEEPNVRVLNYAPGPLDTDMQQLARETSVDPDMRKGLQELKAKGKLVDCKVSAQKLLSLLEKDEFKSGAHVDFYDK

Compound: Cc1c(C(=O)N2CC[C@H](C)C[C@@H]2C(F)(F)F)cnn1-c1nc2c(c(=O)[nH]1)CCC2 (racemic) [Q-0480]
- IC50 [1]: 300 nM
- IC50 [2]: 9 nM

Compound: Cc1cc(=O)[nH]c(-n2ncc(C(=O)N3CCc4ccccc4[C@@H]3C)c2C)n1 (single isomer, unassigned) [Q-0339]
- IC50 [1]: 1500 nM
- IC50 [2]: 9 nM

Compound: Cc1cc(=O)[nH]c(-n2ncc(C(=O)N3CCc4ccccc4[C@H]3C)c2C)n1 (single isomer, unassigned) [Q-0340]
- IC50 [1]: 1100 nM
- IC50 [2]: 7 nM

Compound: Cc1cc(=O)[nH]c(-n2ncc(C(=O)N3c4ccccc4C[C@H]3C)c2C)n1 (single isomer, unassigned) [Q-0361]
- IC50 [1]: 600 nM
- IC50 [2]: 10 nM

Compound: Cc1cc(=O)[nH]c(-n2ncc(C(=O)N3c4ccccc4C[C@@H]3C)c2C)n1 (single isomer, unassigned) [Q-0372]
- IC50 [1]: 300 nM
- IC50 [2]: 5 nM

Compound: Cc1c(C(=O)N2c3ccccc3C[C@H]2C)cnn1-c1nc2ccsc2c(=O)[nH]1 (single isomer, unassigned) [Q-0414]
- IC50 [1]: 300 nM
- IC50 [2]: 6 nM

Compound: Cc1c(C(=O)N2c3ccccc3C[C@@H]2C)cnn1-c1nc2ccsc2c(=O)[nH]1 (single isomer, unassigned) [Q-0415]
- IC50 [1]: 1200 nM
- IC50 [2]: 30 nM

Compound: Cc1nc(-n2ncc(C(=O)N3c4ccccc4C[C@H]3C)c2C)[nH]c(=O)c1C (single isomer, unassigned) [Q-0416]
- IC50 [1]: 2800 nM
- IC50 [2]: 20 nM

Compound: Cc1c(C(=O)N2CCC[C@@H](C(F)(F)F)C2)cnn1-c1nc2c(c(=O)[nH]1)CCC2 (single isomer, unassigned) [Q-0474]
- IC50 [1]: 600 nM
- IC50 [2]: 7 nM

Compound: Cc1c(C(=O)N2CCC[C@H](C(F)(F)F)C2)cnn1-c1nc2c(c(=O)[nH]1)CCC2 (single isomer, unassigned) [Q-0475]
- IC50 [1]: 300 nM
- IC50 [2]: 5 nM

Compound: Cc1cc(=O)[nH]c(-n2ncc(C(=O)N3CCc4ccccc43)c2C)n1 [Q-0001]
- IC50 [1]: 2700 nM
- IC50 [2]: 20 nM

Compound: Cc1cc(=O)[nH]c(-n2nc(C)c(CCC(=O)Nc3ccc(Cl)cc3)c2C)n1 [Q-0009]
- IC50 [1]: 22000 nM
- IC50 [2]: 300 nM

Compound: Cc1cc(=O)[nH]c(-n2ncc(C(=O)NC3CCCC3)c2C)n1 [Q-0280]
- IC50 [1]: 16000 nM
- IC50 [2]: 60 nM

Compound: Cc1cc(=O)[nH]c(-n2nc(C)c(CCC(=O)N3CCCC3)c2C)n1 [Q-0281]
- IC50 [1]: 9000 nM
- IC50 [2]: 60 nM

Compound: CCN1CCN(C(=O)c2cnn(-c3nc(C)c(C)c(=O)[nH]3)c2C)CC1 [Q-0282]
- IC50 [1]: 4400 nM
- IC50 [2]: 30 nM

Compound: Cc1cc(=O)[nH]c(-n2ncc(C(=O)N3CCc4ccc(C(F)(F)F)cc4C3)c2C)n1 [Q-0298]
- IC50 [1]: 1500 nM
- IC50 [2]: 20 nM

Compound: Cc1cc(=O)[nH]c(-n2ncc(C(=O)N3CCN(c4ccccn4)CC3)c2C)n1 [Q-0299]
- IC50 [1]: 1200 nM
- IC50 [2]: 5 nM

Compound: Cc1cc(=O)[nH]c(-n2ncc(C(=O)N3CCc4cccnc4C3)c2C)n1 [Q-0300]
- IC50 [1]: 5000 nM
- IC50 [2]: 9 nM

Compound: Cc1cc(=O)[nH]c(-n2ncc(C(=O)N3Cc4ccccc4C3)c2C)n1 [Q-0302]
- IC50 [1]: 1200 nM
- IC50 [2]: 9 nM

Compound: Cc1cc(=O)[nH]c(-n2ncc(C(=O)N3c4ccccc4CC3C)c2C)n1 (stereo not drawn) [Q-0303]
- IC50 [1]: 900 nM
- IC50 [2]: 7 nM

Compound: Cc1cc(=O)[nH]c(-n2ncc(C(=O)N3CCS(=O)(=O)CC3)c2C)n1 [Q-0304]
- IC50 [1]: 67000 nM
- IC50 [2]: 40 nM

Compound: Cc1cc(=O)[nH]c(-n2ncc(C(=O)NC34CC5CC(CC(C5)C3)C4)c2C)n1 [Q-0305]
- IC50 [1]: 4600 nM
- IC50 [2]: 30 nM

Compound: COc1ccc2c(c1)CN(C(=O)c1cnn(-c3nc(C)cc(=O)[nH]3)c1C)CC2 [Q-0307]
- IC50 [1]: 4200 nM
- IC50 [2]: 9 nM

Compound: Cc1cc(=O)[nH]c(-n2ccc(C(=O)N3CCc4ccccc4C3)n2)n1 [Q-0308, 6-methyl-2-[3-(1,2,3,4-tetrahydroisoquinoline-2-carbonyl)-1H-pyrazol-1-yl]-3,4-dihydropyrimidin-4-one]
- IC50 [1]: 2000 nM
- IC50 [2]: 20 nM

Compound: Cc1c(C(=O)N2CCC(n3nccc3C(F)(F)F)CC2)cnn1-c1nn2cccc2c(=O)[nH]1 [Q-0984]
- IC50 [1]: 400 nM

Compound: Cc1c(C(=O)N2CC(N3CCC3)C2)cnn1-c1nn2cccc2c(=O)[nH]1 [Q-0985]
- IC50 [1]: 9200 nM

Compound: Cc1c(C(=O)N2CC(OCC(F)(F)F)C2)cnn1-c1nn2cccc2c(=O)[nH]1 [Q-0987]
- IC50 [1]: 1100 nM

Compound: Cc1c(C(=O)N2CCC(C3(C#N)CCCC3)CC2)cnn1-c1nn2cccc2c(=O)[nH]1 [Q-0988]
- IC50 [1]: 69 nM

Compound: Cc1c(C(=O)N2C3CCCC2CN(Cc2ccccc2)C3)cnn1-c1nn2cccc2c(=O)[nH]1 [Q-0989]
- IC50 [1]: 900 nM

Compound: Cc1c(C(=O)N2CCC(F)(c3ccc(Cl)cc3)CC2)cnn1-c1nn2cccc2c(=O)[nH]1 [Q-0990]
- IC50 [1]: 200 nM

Compound: O=C(c1cn(-c2nn3cccc3c(=O)[nH]2)nc1Cl)N1CCC(C(F)(F)F)CC1 [Q-0991]
- IC50 [1]: 100 nM

Compound: Cc1c(C(=O)N2CCC(N3CCC(F)(F)C3)C2)cnn1-c1nn2cccc2c(=O)[nH]1 (stereo not drawn) [Q-0994]
- IC50 [1]: 3000 nM

Compound: Cc1c(C(=O)N2CCC(F)(c3ccc(F)cc3)C2)cnn1-c1nn2cccc2c(=O)[nH]1 (stereo not drawn) [Q-0996]
- IC50 [1]: 1900 nM

Compound: Cc1c(C(=O)N2CC[C@H](OCc3cnc(Cl)s3)C2)cnn1-c1nn2cccc2c(=O)[nH]1 [Q-0997]
- IC50 [1]: 1000 nM

Compound: Cc1c(C(=O)N2CCC(C3(C#N)CCC3)CC2)cnn1-c1nn2cccc2c(=O)[nH]1 [Q-0999]
- IC50 [1]: 200 nM

Compound: Cc1c(C(=O)N2CC(OCc3ccc(F)c(F)c3)C2)cnn1-c1nn2cccc2c(=O)[nH]1 [Q-1000]
- IC50 [1]: 900 nM

Compound: Cc1c(C(=O)N2CC3CC2C[C@@H]3C#N)cnn1-c1nn2cccc2c(=O)[nH]1 (stereo partly drawn) [Q-1001]
- IC50 [1]: 1800 nM

Compound: Cc1c(C(=O)N2CC3CC2C[C@H]3C#N)cnn1-c1nn2cccc2c(=O)[nH]1 (stereo partly drawn) [Q-1002]
- IC50 [1]: 3400 nM

Compound: Cc1c(C(=O)N2Cc3cc(C(F)(F)F)cnc3C2)cnn1-c1nn2cccc2c(=O)[nH]1 [Q-1004]
- IC50 [1]: 3100 nM

Compound: COC1(C(F)(F)F)CCCN(C(=O)c2cnn(-c3nn4cccc4c(=O)[nH]3)c2C)C1 (stereo not drawn) [Q-1006]
- IC50 [1]: 1400 nM

Compound: Cc1c(C(=O)Nc2ccc(F)cc2C(C)(C)O)cnn1-c1nn2cccc2c(=O)[nH]1 [Q-1008]
- IC50 [1]: 300 nM

Compound: Cc1c(C(=O)N2CC(N3CC[C@@H](F)C3)C2)cnn1-c1nn2cccc2c(=O)[nH]1 [Q-1009]
- IC50 [1]: 2000 nM

Compound: Cc1c(C(=O)N2CCC(N3CC[C@@H](F)C3)C2)cnn1-c1nn2cccc2c(=O)[nH]1 (stereo partly drawn) [Q-1010]
- IC50 [1]: 4000 nM

Compound: Cc1c(C(=O)N2CC[C@@H](OCc3cnc(Cl)s3)C2)cnn1-c1nn2cccc2c(=O)[nH]1 [Q-1011]
- IC50 [1]: 800 nM

Compound: Cc1c(C(=O)N2CCN(C(=O)Cc3ccccc3F)CC2)cnn1-c1nn2cccc2c(=O)[nH]1 [Q-1012]
- IC50 [1]: 1300 nM

Compound: Cc1c(C(=O)N2Cc3cc(Cl)cnc3C2)cnn1-c1nn2cccc2c(=O)[nH]1 [Q-1013]
- IC50 [1]: 1500 nM

Compound: Cc1c(C(=O)N2CCC[C@@H](OCC(F)(F)F)C2)cnn1-c1nn2cccc2c(=O)[nH]1 [Q-1014]
- IC50 [1]: 1400 nM

Compound: Cc1c(C(=O)N2CCC(N3CCCC(C(F)(F)F)C3)CC2)cnn1-c1nn2cccc2c(=O)[nH]1 (stereo not drawn) [Q-1015]
- IC50 [1]: 400 nM

Compound: Cc1c(C(=O)N2CCC(N3CCC[C@@H](F)C3)C2)cnn1-c1nn2cccc2c(=O)[nH]1 (stereo partly drawn) [Q-1016]
- IC50 [1]: 2400 nM

Compound: CCC(C#N)C1CCN(C(=O)c2nnn(-c3nn4cccc4c(=O)[nH]3)c2C)CC1 (stereo not drawn) [Q-1017]
- IC50 [1]: 300 nM

Compound: Cc1c(C(=O)N2CCC3(CCN(CCC(F)(F)F)C3)CC2)cnn1-c1nn2cccc2c(=O)[nH]1 [Q-1018]
- IC50 [1]: 700 nM

Compound: Cc1c(C(=O)N2CCC(N3CCC[C@@H]3C(F)(F)F)CC2)cnn1-c1nn2cccc2c(=O)[nH]1 [Q-1019]
- IC50 [1]: 400 nM

Compound: Cc1c(C(=O)N2CC(N3CCC(F)CC3)C2)cnn1-c1nn2cccc2c(=O)[nH]1 [Q-1021]
- IC50 [1]: 1000 nM

Compound: Cc1c(C(=O)N2CC3(C2)CC(F)(F)C3)cnn1-c1nc2c(c(=O)[nH]1)CCC2 [Q-1023]
- IC50 [1]: 700 nM

Compound: Cc1c(C(=O)N2CC(N3CCC[C@H](F)C3)C2)cnn1-c1nn2cccc2c(=O)[nH]1 [Q-1025]
- IC50 [1]: 1200 nM

Compound: Cc1c(C(=O)N2CCC(N3CCC[C@H](F)C3)C2)cnn1-c1nn2cccc2c(=O)[nH]1 (stereo partly drawn) [Q-1026]
- IC50 [1]: 1700 nM

Compound: Cc1c(C(=O)N2CCC(N3CCC(F)CC3)C2)cnn1-c1nn2cccc2c(=O)[nH]1 (stereo not drawn) [Q-1027]
- IC50 [1]: 3100 nM

Compound: Cc1c(C(=O)N2CCC(O)(Cc3ccc(F)cc3)C2)cnn1-c1nn2cccc2c(=O)[nH]1 (stereo not drawn) [Q-1028]
- IC50 [1]: 1100 nM

Compound: Cc1c(C(=O)N2CCC(N3CCC[C@H]3C(F)(F)F)CC2)cnn1-c1nn2cccc2c(=O)[nH]1 [Q-1029]
- IC50 [1]: 1000 nM

Compound: Cc1c(C(=O)N2CCC(N3CC[C@H](F)C3)C2)cnn1-c1nn2cccc2c(=O)[nH]1 (stereo partly drawn) [Q-1030]
- IC50 [1]: 3100 nM

Compound: Cc1c(C(=O)N2CC(N3CC[C@H](F)C3)C2)cnn1-c1nn2cccc2c(=O)[nH]1 [Q-1031]
- IC50 [1]: 2300 nM

Compound: Cc1c(C(=O)N2CC(N3CC(O)(C(F)(F)F)C3)C2)cnn1-c1nn2cccc2c(=O)[nH]1 [Q-1032]
- IC50 [1]: 10000 nM

Compound: Cc1c(C(=O)N2CC3CCCC(C2)N3CC(F)(F)F)cnn1-c1nn2cccc2c(=O)[nH]1 [Q-1035]
- IC50 [1]: 100 nM

Compound: Cc1c(C(=O)N2CC3CCCC(C2)N3CCC(F)(F)F)cnn1-c1nn2cccc2c(=O)[nH]1 [Q-1036]
- IC50 [1]: 70 nM

Compound: Cc1c(C(=O)N2C3CCC2CC(F)(c2ccc(Cl)cc2)C3)cnn1-c1nn2cccc2c(=O)[nH]1 (stereo not drawn) [Q-1037]
- IC50 [1]: 71 nM

Compound: Cc1c(C(=O)N2CCC(C)C(F)C2)cnn1-c1nn2cccc2c(=O)[nH]1 (stereo not drawn) [Q-1039]
- IC50 [1]: 300 nM

Compound: Cc1c(C(=O)N2CCC(C)CC2)cnn1-c1nn2cccc2c(=O)[nH]1 [Q-1040]
- IC50 [1]: 300 nM

Compound: Cc1c(C(=O)N2CC(N3CC(F)(C(F)(F)F)C3)C2)cnn1-c1nn2cccc2c(=O)[nH]1 [Q-1042]
- IC50 [1]: 1000 nM

Compound: Cc1c(C(=O)N2CC[C@@H](COc3nccc(Cl)n3)C2)cnn1-c1nn2cccc2c(=O)[nH]1 [Q-1043]
- IC50 [1]: 1400 nM

Compound: Cc1c(C(=O)N2CCC[C@H](OCC(F)(F)F)C2)cnn1-c1nn2cccc2c(=O)[nH]1 [Q-1044]
- IC50 [1]: 1000 nM

Compound: Cc1c(C(=O)N2CC3CCCC(C2)N3C(=O)OC(C)(C)C)cnn1-c1nc2c(c(=O)[nH]1)CCC2 [Q-1045]
- IC50 [1]: 100 nM

Compound: Cc1c(C(=O)N2CCC(F)(F)C2)cnn1-c1nn2cccc2c(=O)[nH]1 [Q-1050]
- IC50 [1]: 1400 nM
